Laboratory results from PubChem BioAssay AID256 (DTP/NCI, 2004).
Where “and” joins values, the source holds several entries; their conditions need not be identical. Equal entries are not always repeated. Inconclusive results and toxic doses are left out. Rule for the calls: active = survival T/C of 150% or more; inactive = T/C below 125% in these data.

System: CD2F1 mice, L1210 leukemia ip, survival T/C
Assay: NCI In Vivo Anticancer Drug Screen. Data for tumor model L1210 Leukemia (intraperitoneal) in CD2F1 (CDF1) mice
Settings: higher = longer survival
How it was run: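 Each value reflects a quotient of treated over vehicle control outcomes in mice with a transplanted tumor.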

[1] = endpoint: mean survival time, dose: 100.0 mg/kg/injection, schedule: Q04DX003 (ip), vehicle: saline with Tween-80
[2] = endpoint: mean survival time, dose: 200.0 mg/kg/injection, schedule: Q04DX003 (ip), vehicle: saline with Tween-80
[3] = endpoint: mean survival time, dose: 400.0 mg/kg/injection, schedule: Q04DX003 (ip), vehicle: saline with Tween-80
[4] = endpoint: mean survival time, dose: 6.25 mg/kg/injection, schedule: Q01DX009 (ip), vehicle: Klucel (hydroxypropylcellulose) (HPC)
[5] = endpoint: mean survival time, dose: 12.5 mg/kg/injection, schedule: Q01DX009 (ip), vehicle: Klucel (hydroxypropylcellulose) (HPC)
[6] = endpoint: mean survival time, dose: 100.0 mg/kg/injection, schedule: Q01DX009 (ip), vehicle: saline with Tween-80
[7] = endpoint: mean survival time, dose: 200.0 mg/kg/injection, schedule: Q01DX009 (ip), vehicle: saline with Tween-80
[8] = endpoint: mean survival time, dose: 400.0 mg/kg/injection, schedule: Q01DX009 (ip), vehicle: saline with Tween-80

Measured: T/C

CC(O)(P(=O)(O)O)P(=O)(O)O.[NH-]CC[NH-].[NH-]CC[NH-].[Pt+2].[Pt+2]
inactive: endpoint: mean survival time, dose: 3.13 mg/kg/injection, schedule: Q04DX003 (ip), vehicle: distilled water + Tween-80 104 % of control | endpoint: mean survival time, dose: 6.25 mg/kg/injection, schedule: Q04DX003 (ip), vehicle: distilled water + Tween-80 104 % of control | endpoint: mean survival time, dose: 12.5 mg/kg/injection, schedule: Q04DX003 (ip), vehicle: distilled water + Tween-80 88 % of control | endpoint: mean survival time, dose: 25.0 mg/kg/injection, schedule: Q04DX003 (ip), vehicle: distilled water + Tween-80 103 % of control | endpoint: mean survival time, dose: 50.0 mg/kg/injection, schedule: Q04DX003 (ip), vehicle: distilled water + Tween-80 119 % of control | endpoint: mean survival time, dose: 100.0 mg/kg/injection, schedule: Q04DX003 (ip), vehicle: distilled water + Tween-80 124 % of control | endpoint: mean survival time, dose: 200.0 mg/kg/injection, schedule: Q04DX003 (ip), vehicle: distilled water + Tween-80 111 % of control

CCCCCCCCCCCCCCCC[N+]1(CC)CC[N+](CC)(CCCCCCCCCCCCCCCC)CC1 (stereo not drawn)
inactive: endpoint: mean survival time, dose: 100.0 mg/kg/injection, schedule: Q04DX003 (ip), vehicle: Klucel (hydroxypropylcellulose) (HPC) 96 % of control | endpoint: mean survival time, dose: 200.0 mg/kg/injection, schedule: Q04DX003 (ip), vehicle: Klucel (hydroxypropylcellulose) (HPC) 90 % of control | endpoint: mean survival time, dose: 400.0 mg/kg/injection, schedule: Q04DX003 (ip), vehicle: Klucel (hydroxypropylcellulose) (HPC) 100 % of control

CN(C)c1ccc(N=Nc2cccnc2)cc1
inactive: endpoint: mean survival time, dose: 100.0 mg/kg/injection, schedule: Q01DX001 (ip), vehicle: saline with Tween-80 97 % of control | endpoint: mean survival time, dose: 200.0 mg/kg/injection, schedule: Q01DX001 (ip), vehicle: saline with Tween-80 97 % of control

Ic1ncnc2c1ncn2C1CCCO1 (stereo not drawn)
inactive: endpoint: mean survival time, dose: 50.0 mg/kg/injection, schedule: Q04DX003 (ip), vehicle: saline 96 % of control | endpoint: mean survival time, dose: 100.0 mg/kg/injection, schedule: Q04DX003 (ip), vehicle: saline 94 % of control | endpoint: mean survival time, dose: 200.0 mg/kg/injection, schedule: Q04DX003 (ip), vehicle: saline 94 % of control

COc1c(C=O)c2c(c(OC)c1OC)-c1ccc(OC)c(=O)cc1[C@@H](NC(C)=O)CC2
inactive: endpoint: median survival time, dose: 12.5 mg/kg/injection, schedule: Q01DX009 (ip), vehicle: Klucel (hydroxypropylcellulose) (HPC) 100 % of control

Cc1ccc2c(c1)C1(C)OC(C=CC1=O)O2 (stereo not drawn)
inactive: endpoint: median survival time, dose: 3.12 mg/kg/injection, schedule: Q01DX005 (ip), vehicle: Klucel (hydroxypropylcellulose) (HPC) 106 % of control | endpoint: median survival time, dose: 6.25 mg/kg/injection, schedule: Q01DX005 (ip), vehicle: Klucel (hydroxypropylcellulose) (HPC) 101 % of control | endpoint: median survival time, dose: 12.5 mg/kg/injection, schedule: Q01DX005 (ip), vehicle: Klucel (hydroxypropylcellulose) (HPC) 105 % of control | endpoint: median survival time, dose: 25.0 mg/kg/injection, schedule: Q01DX005 (ip), vehicle: Klucel (hydroxypropylcellulose) (HPC) 101 % of control and 105 % of control | endpoint: median survival time, dose: 50.0 mg/kg/injection, schedule: Q01DX005 (ip), vehicle: Klucel (hydroxypropylcellulose) (HPC) 103 % of control

COc1ccc(-c2nccc3cc(OC)c(OC)cc23)cc1OC
inactive: endpoint: mean survival time, dose: 12.5 mg/kg/injection, schedule: Q01DX009 (ip), vehicle: water 95 % of control | endpoint: mean survival time, dose: 25.0 mg/kg/injection, schedule: Q01DX009 (ip), vehicle: water 95 % of control | endpoint: mean survival time, dose: 50.0 mg/kg/injection, schedule: Q01DX009 (ip), vehicle: water 103 % of control

[Cl][Pt+2][Cl].[NH-]c1ccc(S(=O)(=O)Nc2ccccn2)cc1.[NH-]c1ccc(S(=O)(=O)Nc2ccccn2)cc1
inactive: endpoint: mean survival time, dose: 25.0 mg/kg/injection, schedule: Q04DX003 (ip), vehicle: saline with Tween-80 97 % of control | endpoint: mean survival time, dose: 50.0 mg/kg/injection, schedule: Q04DX003 (ip), vehicle: saline with Tween-80 97 % of control | [1] 96 % of control | [2] 102 % of control | [3] 107 % of control

CO[C@@]12[C@@H]3N[C@@H]3CN1C1=C(C(=O)C(NCCN3CCCC3)=C(C)C1=O)[C@@H]2COC(N)=O
inactive: endpoint: mean survival time, dose: 0.31 mg/kg/injection, schedule: Q01DX005 (ip), vehicle: water 101 % of control | endpoint: mean survival time, dose: 0.62 mg/kg/injection, schedule: Q01DX005 (ip), vehicle: water 101 % of control | endpoint: mean survival time, dose: 1.25 mg/kg/injection, schedule: Q01DX005 (ip), vehicle: water 113 % of control | endpoint: mean survival time, dose: 1.5 mg/kg/injection, schedule: Q01DX001 (ip), vehicle: water 100 % of control | endpoint: mean survival time, dose: 2.5 mg/kg/injection, schedule: Q01DX005 (ip), vehicle: water 120 % of control and 122 % of control | endpoint: mean survival time, dose: 3.0 mg/kg/injection, schedule: Q01DX001 (ip), vehicle: water 94 % of control | endpoint: mean survival time, dose: 6.0 mg/kg/injection, schedule: Q01DX001 (ip), vehicle: water 115 % of control | endpoint: mean survival time, dose: 12.0 mg/kg/injection, schedule: Q01DX001 (ip), vehicle: water 103 % of control

Cc1cc(C)c(F)[c]([Hg][Br])c1N
inactive: endpoint: mean survival time, dose: 3.13 mg/kg/injection, schedule: Q01DX009 (ip), vehicle: Klucel (hydroxypropylcellulose) (HPC) 102 % of control | [4] 113 % of control | [5] 105 % of control

CCOC(=O)C(C)OC(=O)c1ccccc1 (stereo not drawn)
inactive: [6] 103 % of control | [1] 91 % of control | [7] 105 % of control | [2] 105 % of control | [8] 100 % of control | [3] 103 % of control

COc1cc2c(c(OC)c1OC)-c1ccc(SCc3ccccc3)c(=O)cc1[C@@H](NC(C)=O)CC2
inactive: endpoint: mean survival time, dose: 1.56 mg/kg/injection, schedule: Q01DX009 (ip), vehicle: Klucel (hydroxypropylcellulose) (HPC) 103 % of control | endpoint: mean survival time, dose: 3.12 mg/kg/injection, schedule: Q01DX009 (ip), vehicle: Klucel (hydroxypropylcellulose) (HPC) 97 % of control | [4] 112 % of control | [5] 121 % of control | endpoint: mean survival time, dose: 25.0 mg/kg/injection, schedule: Q01DX009 (ip), vehicle: Klucel (hydroxypropylcellulose) (HPC) 117 % of control

C=C(Br)CNS(=O)(=O)c1ccc(OC)cc1
inactive: [6] 93 % of control | [7] 97 % of control | [8] 96 % of control

Cc1ccc(O[Si](C)(C)C)cc1
inactive: [6] 100 % of control | [1] 103 % of control | [2] 87 % of control | [3] 89 % of control

COC1OC2COc3ccccc3OC2C(N)C1Nc1ccccc1 (stereo not drawn)
inactive: endpoint: mean survival time, dose: 75.0 mg/kg/injection, schedule: Q01DX001 (ip), vehicle: saline with Tween-80 101 % of control | endpoint: mean survival time, dose: 150.0 mg/kg/injection, schedule: Q01DX001 (ip), vehicle: saline with Tween-80 101 % of control | endpoint: mean survival time, dose: 300.0 mg/kg/injection, schedule: Q01DX001 (ip), vehicle: saline with Tween-80 100 % of control

CC1CC(O)C(=O)C(O[C@@H]2C[C@@H]3CC[C@@H]4[C@H](CC[C@]5(C)C(C6=CC(=O)OC6)CC[C@]45O)[C@@]3(C=O)C[C@H]2O)O1 (stereo partly drawn)
inactive: endpoint: mean survival time, dose: 6.25 mg/kg/injection, schedule: Q01DX001 (ip), vehicle: saline with Tween-80 104 % of control | endpoint: mean survival time, dose: 12.5 mg/kg/injection, schedule: Q01DX001 (ip), vehicle: saline with Tween-80 104 % of control

COc1ccc(CC(N)C(=O)NC2C(COP(=O)(O)OC3CC(n4cc(C)c(=O)[nH]c4=O)OC3CO)OC(n3cnc4c(N(C)C)ncnc43)C2O)cc1 (stereo not drawn)
inactive: endpoint: median survival time, dose: 5.63 mg/kg/injection, schedule: Q01DX005 (ip), vehicle: water 96 % of control | endpoint: median survival time, dose: 11.25 mg/kg/injection, schedule: Q01DX005 (ip), vehicle: water 96 % of control | endpoint: median survival time, dose: 21.9 mg/kg/injection, schedule: Q01DX005 (ip), vehicle: saline 109 % of control | endpoint: median survival time, dose: 22.5 mg/kg/injection, schedule: Q01DX005 (ip), vehicle: water 94 % of control | endpoint: median survival time, dose: 43.8 mg/kg/injection, schedule: Q01DX005 (ip), vehicle: saline 106 % of control | endpoint: median survival time, dose: 45.0 mg/kg/injection, schedule: Q01DX005 (ip), vehicle: water 100 % of control | endpoint: median survival time, dose: 87.5 mg/kg/injection, schedule: Q01DX005 (ip), vehicle: saline 108 % of control | endpoint: median survival time, dose: 90.0 mg/kg/injection, schedule: Q01DX005 (ip), vehicle: water 104 % of control | endpoint: median survival time, dose: 175.0 mg/kg/injection, schedule: Q01DX005 (ip), vehicle: saline 102 % of control

O=c1cc(C(F)(F)F)[nH]c2ccc(F)cc12
inactive: endpoint: mean survival time, dose: 5.0 mg/kg/injection, schedule: Q01DX009 (ip), vehicle: saline with Tween-80 101 % of control | endpoint: mean survival time, dose: 10.0 mg/kg/injection, schedule: Q01DX009 (ip), vehicle: saline with Tween-80 100 % of control | endpoint: mean survival time, dose: 20.0 mg/kg/injection, schedule: Q01DX009 (ip), vehicle: saline with Tween-80 96 % of control

c1ccc(CN2CCc3cc4c(cc3C2)OCO4)cc1
inactive: endpoint: mean survival time, dose: 37.5 mg/kg/injection, schedule: Q01DX001 (ip), vehicle: saline 102 % of control | endpoint: mean survival time, dose: 75.0 mg/kg/injection, schedule: Q01DX001 (ip), vehicle: saline 102 % of control | endpoint: mean survival time, dose: 150.0 mg/kg/injection, schedule: Q01DX001 (ip), vehicle: saline 90 % of control
